Reference: publication PMC4604124, “In Vitro Characterization of the Pharmacological Properties of the Anti-Cancer Chelator, Bp4eT, and Its Phase I Metabolites” (PLoS ONE, 2015)
Values joined by “and” are separate entries in the source; they are usually repeats but may differ in a detail not shown here. Equal values may be shown once.

Key:
[1] = Ascorbate oxidation assay (redox activity of iron complexes); type: biochemical;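 on %Fe 30min (ascorbate oxidation, Fe 100%), průměr: IBE 3 means excess free chelator over iron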;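 on %Fe 30min (ascorbate oxidation, Fe 100%): IBE 3 means excess free chelator over iron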;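 on %Fe 30min: ascorbate oxidation as % of the Fe control (Fe 100%): IBE 0.1 means iron-binding equivalents with iron in excess over chelator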;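 on Change of absorbance, odečet 0 (time 0 subtracted), čas 10, průměr: IBE 3 means excess free chelator over 10 µM FeCl3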;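 on Change of absorbance, odečet 0 (time 0 subtracted), čas 10: IBE 3 means excess free chelator over 10 µM FeCl3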
Procedure: The ascorbate oxidation assay was used to assess the redox activity of the iron complexes of the chelators using an established protocol. In brief, 100 μM ascorbic acid was prepared immediately prior to the experiment and incubated either alone or in the presence of 10 μM FeCl3 in a 50-fold molar excess (500 μM) of citrate and the chelators. Chelators were assayed at iron-binding equivalents (IBE) of 0.1 (excess of iron), 1 (fully coordinated iron—chelator complexes) and 3 (excess of free chelator). […] The decrease of absorbance between the two time points was calculated and expressed as a percentage of control without the chelator.

caspase 8 = test: Caspase activity, luminescent kit, caspase 8; type: cell-based, human; details: for kaspáza 8, raw signal / kaspáza 8, signal / viabilita: individual experiments by date; for kaspáza 8, raw signal, průměry / kaspáza 8, % kontroly / kaspáza 8, signal / viabilita, průměry: mean; for kaspáza 8, % kontroly / kaspáza 8, signal / viabilita / kaspáza 8, signal / viabilita, průměry: normalised to viability
Procedure: To assess the effect of the compounds on caspase activity, MCF-7 cells were incubated with 100 nM Bp4eT or its metabolites for 3, 24 or 72 h/37°C in 96-well plates, as described above. The cells were then lysed by adding 100 μL of cold lysis buffer (100 mM HEPES, 10 mM CHAPS, 10 mM D-L-dithiothreitol, pH 7.4) to 100 μL of medium in each well. Lysates were immediately frozen at -80°C. Thawed lysates were used to assess caspase activity using luminescent kits for caspases 3/7, 8 and 9 (Promega, Madison, WI, USA). The luminescence was measured using the Tecan Infinite 200M plate reader. Caspase activity in the experimental groups was corrected according to the cellular viability of each group and expressed as a percentage of activity of the untreated control (100%).

[2] = sheet IBE 1, time 10, replicates
[3] = sheet IBE 1, time 20, replicates
[4] = sheet IBE 1, time 30, replicates

CCNC(=O)NN=C(c1ccccc1)c1ccccn1 [Z-Bp4eS, 2-benzoylpyridine 4-ethylsemicarbazone]
%Fe 30min: ascorbate oxidation as % of the Fe control (Fe 100%) ([1]; IBE 0.1, 30 min, mean (průměr)): 99.02% | Change of absorbance after subtraction of time 0 (odečet 0) ([1]; IBE 0.1, time 10, mean (průměr)): -0.03387 | Change of absorbance after subtraction of time 0 (odečet 0) ([1]; IBE 0.1, time 20, mean (průměr)): -0.06534 | Change of absorbance after subtraction of time 0 (odečet 0) ([1]; IBE 0.1, time 30, mean (průměr)): -0.09415 | Absorbance (ascorbate, λ = 265 nm) ([1]; IBE 0.1, čas 0 (time 0), mean (průměr)): 0.7817 | Absorbance (ascorbate, λ = 265 nm) ([1]; IBE 0.1, čas 10 (time 10), mean (průměr)): 0.7478 | Absorbance (ascorbate, λ = 265 nm) ([1]; IBE 0.1, čas 20 (time 20), mean (průměr)): 0.7164 | Absorbance (ascorbate, λ = 265 nm) ([1]; IBE 0.1, čas 30 (time 30), mean (průměr)): 0.6875 | %Fe 30min (ascorbate oxidation, Fe = 100%), průměr (mean) ([1]; sheet IBE 1, 30min, Fe 100%, mean): 102.1% | %Fe 30min (ascorbate oxidation, Fe = 100%), single replicates ([1]; sheet IBE 1, 30min, Fe 100%, replicates): 100.6% and 105.4% and 99.81% and 137.6% and 115.7% and 98.81% and 93.49% and 86.5% and 81.2% | raw reading at čas 0 (time 0), průměr (mean) ([1]; sheet IBE 1, time 0, mean of 9 readings): 0.8114 | raw reading at čas 0 (time 0), single replicates ([1]; sheet IBE 1, time 0, replicates of 2014-03-24 (two runs) and 2014-03-25): 0.8361 and 0.825 and 0.7812 and 0.7956 and 0.8012 and 0.8226 and 0.8158 and 0.7997 and 0.8255 | odečet 0 (reading minus time 0 reading) at čas 10, průměr (mean) ([1]; sheet IBE 1, time 10, mean): -0.03354 | raw reading at čas 10 (time 10), průměr (mean) ([1]; sheet IBE 1, time 10, mean of 9 readings): 0.7779 | odečet 0 (reading minus time 0 reading) at čas 10, single replicates [1, 2]: -0.0282 and -0.0302 and -0.027 and -0.05761 and -0.03481 and -0.02931 and -0.03593 and -0.03173 and -0.02703 | raw reading at čas 10 (time 10), single replicates [1, 2]: 0.753 and 0.7654 and 0.7742 and 0.765 and 0.781 and 0.7704 and 0.7896 and 0.8044 and 0.798 | odečet 0 (reading minus time 0 reading) at čas 20, průměr (mean) ([1]; sheet IBE 1, time 20, mean): -0.06288 | raw reading at čas 20 (time 20), průměr (mean) ([1]; sheet IBE 1, time 20, mean of 9 readings): 0.7486 | odečet 0 (reading minus time 0 reading) at čas 20, single replicates [1, 3]: -0.05822 and -0.05772 and -0.05662 and -0.09103 and -0.07213 and -0.05933 and -0.06186 and -0.05806 and -0.05096 | raw reading at čas 20 (time 20), single replicates [1, 3]: 0.723 and 0.7379 and 0.7446 and 0.7316 and 0.7437 and 0.7404 and 0.7637 and 0.7781 and 0.7741 | odečet 0 (reading minus time 0 reading) at čas 30, průměr (mean) ([1]; sheet IBE 1, time 30, mean): -0.09054 | raw reading at čas 30 (time 30), průměr (mean) ([1]; sheet IBE 1, time 30, mean of 9 readings): 0.7209 | odečet 0 (reading minus time 0 reading) at čas 30, single replicates [1, 4]: -0.08693 and -0.09103 and -0.08623 and -0.1189 and -0.09997 and -0.08537 and -0.08823 and -0.08163 and -0.07663 | raw reading at čas 30 (time 30), single replicates [1, 4]: 0.6943 and 0.7046 and 0.715 and 0.7038 and 0.7159 and 0.7144 and 0.7373 and 0.7545 and 0.7484 | %Fe 30min (ascorbate oxidation, Fe 100%), průměr ([1]; sheet IBE 3, 30min, Fe alone = 100%, mean (průměr) of the 9 replicates): 110.1% | %Fe 30min (ascorbate oxidation, Fe 100%) ([1]; sheet IBE 3, 30min, Fe alone = 100%, single replicates): 104.7% and 99.68% and 110% and 146.8% and 116.1% and 111.6% and 112.3% and 95.38% and 93.85% | Change of absorbance, odečet 0 (time 0 subtracted), čas 10, průměr ([1]; sheet IBE 3, time 10 minus time 0, mean (průměr)): -0.03903 | Change of absorbance, odečet 0 (time 0 subtracted), čas 10 ([1]; sheet IBE 3, time 10 minus time 0, single replicates): -0.0367 and -0.0322 and -0.0443 and -0.057 and -0.0434 and -0.0428 and -0.03948 and -0.02878 and -0.02658 | Change of absorbance, odečet 0 (time 0 subtracted), čas 20, průměr ([1]; sheet IBE 3, time 20 minus time 0, mean (průměr)): -0.07371 | Change of absorbance, odečet 0 (time 0 subtracted), čas 20 ([1]; sheet IBE 3, time 20 minus time 0, single replicates): -0.07156 and -0.06896 and -0.07856 and -0.1012 and -0.07529 and -0.07709 and -0.07424 and -0.05944 and -0.05704 | Change of absorbance, odečet 0 (time 0 subtracted), čas 30, průměr ([1]; sheet IBE 3, time 30 minus time 0, mean (průměr)): -0.1017 | Change of absorbance, odečet 0 (time 0 subtracted), čas 30 ([1]; sheet IBE 3, time 30 minus time 0, single replicates): -0.09723 and -0.09253 and -0.1021 and -0.1363 and -0.1078 and -0.1036 and -0.1028 and -0.0873 and -0.0859 | kaspáza 8, raw signal (caspase 8; 3 hodiny): 1943.5 and 1086.5 and 1152 and 914.5 | kaspáza 8, raw signal, průměry (caspase 8; 3 hodiny): 1274.12 | kaspáza 8, % kontroly (caspase 8; 3 hodiny): 95.08 % kontroly | kaspáza 8, signal / viabilita (caspase 8; 3 hodiny): 19.9524 and 11.1542 and 11.8267 and 9.388 | kaspáza 8, signal / viabilita, průměry (caspase 8; 3 hodiny): 13.0804 | kaspáza 8, raw signal (caspase 8; 24 hodin): 1728 and 1248 and 1958.5 and 1430.5 | kaspáza 8, raw signal, průměry (caspase 8; 24 hodin): 1591.25 | kaspáza 8, % kontroly (caspase 8; 24 hodin): 100.61 % kontroly | kaspáza 8, signal / viabilita (caspase 8; 24 hodin): 17.3743 and 12.5481 and 19.6919 and 14.3831 | kaspáza 8, signal / viabilita, průměry (caspase 8; 24 hodin): 15.9994 | kaspáza 8, raw signal (caspase 8; 72 hodin): 6689.5 and 5535.5 and 6778.5 and 5867 | kaspáza 8, raw signal, průměry (caspase 8; 72 hodin): 6217.62 | kaspáza 8, % kontroly (caspase 8; 72 hodin): 96.15 % kontroly | kaspáza 8, signal / viabilita (caspase 8; 72 hodin): 71.5149 and 59.1779 and 72.4663 and 62.7218 | kaspáza 8, signal / viabilita, průměry (caspase 8; 72 hodin): 66.4702
